In brackets after ≈: the same amount, converted by molar mass. Where two headings read alike, the source gives them in different places.
What was measured:
HeLa S3 cells [1] = test: cells; type: cell-based; settings: for inhibition at 2 µg/mL: 2 μg/ml; for inhibition at 1 µg/mL: 1 μg/ml
Description: The HeLa S3 cells were scattered in a plastic laboratory dish, 6 cm in diameter, at the rate of 0.7×10^5 cells/plate by using as a medium an Eagle's MEM (Minimum Essential Medium) [Science, 30, 432-437 (1959)] containing 60 μg/ml of kanamycin and 10% calf serum. On the 2nd day, the medium was removed and a measured quantity of the compound of this invention was added together with a fresh serum-impregnated Eagle's MEM. The cell population at this time was 1.58×10^5 cells/plate. After adding the compound (I) of this invention thereto, cultures were grown for 3 days and then the medium was removed, followed by washing with physiological saline, treatment with 0.05% trypsin at room temperature for about 15 minutes and pipetting to disperse the cells. The cell number was counted by a counter and percent inhibition (%) was calculated from the number of the control cells (to which no compound was added) to determine […]. [formula]

[2] = tested on: L-1210 (lymphatic leukemia strain); test: Life-prolonging effect in cancer (L-1210) affected mice; type: in vivo, mouse (BDF1); settings: once a day for 10 days, from 24 hours after intraperitoneal inoculation of 1×10^5 L-1210 cells, BDF1 mice, compared with control group
Description: The L-1210 cells (1×10^5, 0.05 ml) were inoculated into the BDF1 mouse abdorminal cavities (BDF1 means a strain name of mouse), and after lapse of 24 hours, a measured amount of preparation (suspended in 0.5% CMC aqueous solution) was administered once a day for a period of 10 days.
The mice were observed till death, and by comparing the average number of surviving days of the tested mice with that of the control group (to which a 0.5% CMC aqueous solution alone was given), the life prolongation rate was calculated from the following formula: [drawing 17]

HeLa S3 cells [3] = test: cells; type: cell-based; settings: Homo sapiens, 72 h, 3 days, read-out: ID50 (the source's name)
[4] = known coriolin type compounds; J. Antibiotics, Tetrahedron Letters; cited from earlier work
[5] = Homo sapiens, HeLa S3, 72 h, read-out: Percent inhibition
[6] = Homo sapiens, 72 h, HeLa S3 cells, 3 days, read-out: Percent inhibition
[7] = Homo sapiens, 72 h, 0.5 μg/ml, HeLa S3 cells, 3 days, read-out: Percent inhibition

Compound: C=C1CC2(OC1=O)[C@H]1O[C@]13C1(CC(=C)C(=O)O1)[C@H]1CC(C)(C)[C@H](OC(=O)CCCCCCC)[C@H]1[C@]3(C)[C@]21CO1 (stereo partly drawn) [V, 1α-octanoyl-4β,15:6β,7β-dioxide-5(19-methylene-18-butanolide)-8(22-methylene-21-butanolide)hirsutane]
- IC50 (HeLa S3 cells [1]; Homo sapiens, HeLa S3, 72 h, read-out: ID50): 0.47 µg/mL (≈ 0.869 µM)
- inhibition at 0.25 µg/mL (HeLa S3 cells [1]; [5]): 22.4%
- inhibition at 0.5 µg/mL (HeLa S3 cells [1]; [5]): 56.9%
- Life-prolonging effect (life prolongation rate) ([2]; dose 100 μg/mouse × 10): 99%
- Life-prolonging effect (life prolongation rate) ([2]; dose 200 μg/mouse × 10): 120%

Compound: C=C1CC2(OC1=O)[C@H]1CC(C)(C)[C@H](OC(=O)CCCCCCC)[C@H]1[C@]1(C)[C@]3(CO3)[C@@H](O)[C@H]3O[C@@]321 (stereo partly drawn) [I, 1α-octanoyl-4β, 15:6β,7β-dioxide-5β-hydroxy-8(22-methylene-21-butanolide)hirsutane]
- IC50 (HeLa S3 cells [3]): 2.1 µg/mL (≈ 4.42 µM)
- inhibition at 2 µg/mL (HeLa S3 cells [1]; [6]): 48%
- inhibition at 4 µg/mL (HeLa S3 cells [1]; Homo sapiens, 72 h, 4 μg/ml, HeLa S3 cells, 3 days, read-out: Percent inhibition): 76.2%
- Life-prolonging effect (life prolongation rate) ([2]; dose 50 μg/mouse × 10): 96%
- Life-prolonging effect (life prolongation rate) ([2]; dose 100 μg/mouse × 10): 111%
- Life-prolonging effect (life prolongation rate) ([2]; dose 200 μg/mouse × 10): 130%

Compound: coriolin
- anti-tumor activity (in words) [4]: having an anti-tumor activity

Compound: C=C1CC2(OC1=O)[C@H]1O[C@]13C(=O)[C@H]1CC(C)(C)[C@H](OC(=O)CCCCCCC)[C@H]1[C@]3(C)[C@]21CO1 (stereo partly drawn) [IV, 1α-octanoyl-4β,15:6β,7β-dioxide-5(19-methylene-18-butanolide)-8-oxo-hirsutane]
- IC50 (HeLa S3 cells [3]): 0.6 µg/mL (≈ 1.27 µM)
- inhibition at 0.5 µg/mL (HeLa S3 cells [1]; [7]): 43.3%
- inhibition at 1 µg/mL (HeLa S3 cells [1]; [6]): 71.6%
- Life-prolonging effect (life prolongation rate) ([2]; dose 12.5 μg/mouse × 10): 99%
- Life-prolonging effect (life prolongation rate) ([2]; dose 25 μg/mouse × 10): 113%
- Life-prolonging effect (life prolongation rate) ([2]; dose 50 μg/mouse × 10): 106%
- Life-prolonging effect (life prolongation rate) ([2]; dose 100 μg/mouse × 10): 127%
- Life-prolonging effect (life prolongation rate) ([2]; dose 200 μg/mouse × 10): 127%

Compound: coriolin C
- anti-tumor activity (in words) [4]: having an anti-tumor activity

Compound: CCCCCCCC(=O)O[C@@H]1[C@@H]2[C@H](CC1(C)C)[C@H](O)[C@@]13O[C@@H]1C(=O)[C@@]1(CO1)[C@@]23C [5-dehydrocoriolin B VI, 5-dehydrocoriolin B, reference compound]
- anti-tumor activity (in words) [4]: having an anti-tumor activity
- IC50 (HeLa S3 cells [3]): 0.76 µg/mL (≈ 1.87 µM)
- inhibition at 0.5 µg/mL (HeLa S3 cells [1]; [7]): 20%
- inhibition at 1 µg/mL (HeLa S3 cells [1]; [6]): 77.6%
- Life-prolonging effect (life prolongation rate) ([2]; dose 6 μg/mouse × 10): 106%
- Life-prolonging effect (life prolongation rate) ([2]; dose 12.5 μg/mouse × 10): 138%
- Life-prolonging effect (life prolongation rate) ([2]; dose 25 μg/mouse × 10): 137%
- Life-prolonging effect (life prolongation rate) ([2]; dose 50 μg/mouse × 10): 144%

Compound: C=C1CC2(OC1=O)[C@H]1CC(C)(C)[C@H](OC(=O)CCCCCCC)[C@H]1[C@]1(C)[C@]3(CO3)C(=O)[C@H]3O[C@@]321 (stereo partly drawn) [II, 1α-octanoyl-4β,15:6β,7β-dioxide-5-oxo-8(22-methylene-21-butanolide)hirsutane]
- IC50 (HeLa S3 cells [3]): 0.12 µg/mL (≈ 0.254 µM)
- inhibiting growth of the HeLa S3 cells (in words) (HeLa S3 cells [1]; HeLa S3 cells): works marvelously in preventing growth of the cancerous cells
- inhibition at 0.1 µg/mL (HeLa S3 cells [1]; Homo sapiens, 72 h, 0.1 μg/ml, HeLa S3 cells, 3 days, read-out: Percent inhibition): 40.2%
- inhibition at 0.2 µg/mL (HeLa S3 cells [1]; Homo sapiens, 72 h, 0.2 μg/ml, HeLa S3 cells, 3 days, read-out: Percent inhibition): 83.2%
- toxicity (in words) (HeLa S3 cells [1]; stated with ID50, HeLa S3 cells): extremely low in toxicity

Compound: C=C1CC2(OC1=O)[C@H]1O[C@]13[C@@H](O)[C@H]1CC(C)(C)[C@H](OC(=O)CCCCCCC)[C@H]1[C@]3(C)[C@]21CO1 (stereo partly drawn) [III, 1α-octanoyl-4β,15:6β,7β-dioxide-5(19-methylene-18-butanolide)-8β-hydroxy-hirsutane]
- IC50 (HeLa S3 cells [3]): 1.1 µg/mL (≈ 2.32 µM)
- inhibition at 1 µg/mL (HeLa S3 cells [1]; [6]): 42.9%
- inhibition at 2 µg/mL (HeLa S3 cells [1]; [6]): 96.6%
- Life-prolonging effect (life prolongation rate) ([2]; dose 6 μg/mouse × 10): 99%
- Life-prolonging effect (life prolongation rate) ([2]; dose 12.5 μg/mouse × 10): 106%
- Life-prolonging effect (life prolongation rate) ([2]; dose 25 μg/mouse × 10): 127%
- Life-prolonging effect (life prolongation rate) ([2]; dose 50 μg/mouse × 10): 141%
- Life-prolonging effect (life prolongation rate) ([2]; dose 100 μg/mouse × 10): 148%
- Life-prolonging effect (life prolongation rate) ([2]; dose 200 μg/mouse × 10): 148%

Compound: CCCCCCCC(=O)O[C@@H]1[C@@H]2[C@H](CC1(C)C)C(=O)[C@@]13O[C@@H]1C(=O)[C@@]1(CO1)[C@@]23C [5,8-dehydrocoriolin B]
- anti-tumor activity (in words) [4]: having an anti-tumor activity

Source: patent US4233224A, “Coriolin derivatives” (priority 1978, dated 1980)
